Active and inactive are the calls of the source. The calls are words filed in the database; no cut-off is given here.
How the values were obtained:
U2OS [1] = experiment: Cytotoxicity against human U2OS cells assessed as reduction in cell viability measured after 24 hrs by CCK8 assay
Quadruplex DNA [2] = experiment: Binding affinity at Tel21 G4 quadruplex DNA (unknown origin) assessed as change in melting temperature at 6 uM by circular dichroism spectrophotometric method; assay type: nucleic acid
Quadruplex DNA [3] = experiment: Binding affinity at Tel45 G4 quadruplex DNA (unknown origin) assessed as change in melting temperature at 6 uM by circular dichroism spectrophotometric method; assay type: nucleic-acid assay
U2OS [4] = experiment: Induction of apoptosis in human U2OS cells assessed as late apoptotic cells at 2.5 uM measured after 24 hrs by Annexin-V flour 633/propidium iodide staining based flow cytometry (reference value: 0.03%); assay type: functional
U2OS [5] = experiment: Antimigratory activity in human U2OS cells measured after 24 hrs by wound scrape assay; assay type: functional, cell-based; details: dose 1.5-5 µM
BJ = experiment: Cytotoxicity against human BJ cells assessed as reduction in cell viability measured after 24 hrs by CCK8 assay; assay type: cell-based
U2OS [6] = experiment: Cell cycle arrest in human U2OS cells assessed as accumulation at S phase at 0.6 uM measured after 24 hrs by propidium iodide staining based flow cytometry (reference value: 24%); assay type: functional
Quadruplex DNA [7] = experiment: Binding affinity at Tel45-9 mutant G4 quadruplex DNA (unknown origin) assessed as change in melting temperature at 6 uM by circular dichroism spectrophotometric method; assay type: nucleic-acid assay
U2OS [8] = experiment: Cell cycle arrest in human U2OS cells assessed as accumulation at G0/G1 phase at 2.5 uM measured after 24 hrs by propidium iodide staining based flow cytometry (reference value: 42%); assay type: functional
U2OS [9] = experiment: Cell cycle arrest in human U2OS cells assessed as accumulation at G2/M phase at 2.5 uM measured after 24 hrs by propidium iodide staining based flow cytometry (reference value: 33.5%); assay type: functional
U2OS [10] = experiment: Cell cycle arrest in human U2OS cells assessed as accumulation at G0/G1 phase at 1.2 uM measured after 24 hrs by propidium iodide staining based flow cytometry (reference value: 42%); assay type: functional
U2OS [11] = experiment: Induction of apoptosis in human U2OS cells assessed as late apoptotic cells at 1.2 uM measured after 24 hrs by Annexin-V flour 633/propidium iodide staining based flow cytometry (reference value: 0.03%); assay type: functional
Quadruplex DNA [12] = experiment: Binding affinity at Tel45 G4 quadruplex DNA (unknown origin) by fluorescence spectroscopic analysis; assay type: nucleic-acid assay
U2OS [13] = experiment: Inhibition of colony formation in human U2OS cells supplemented with fresh medium containing compounds every 3 days for 7 days by crystal violet staining based assay; assay type: functional, cell-based; details: dose 0.12-0.5 µM, time 7.0 day
U2OS [14] = experiment: Cell cycle arrest in human U2OS cells assessed as accumulation at G2/M phase at 1.2 uM measured after 24 hrs by propidium iodide staining based flow cytometry (reference value: 33.5%); assay type: functional
U2OS [15] = experiment: Induction of apoptosis in human U2OS cells assessed as viable cells at 1.2 uM measured after 24 hrs by Annexin-V flour 633/propidium iodide staining based flow cytometry (reference value: 90%); assay type: functional; details: read-out: Activity
U2OS [16] = experiment: Cell cycle arrest in human U2OS cells assessed as increase in accumulation at S phase measured after 24 hrs by propidium iodide staining based flow cytometry; assay type: functional
Quadruplex DNA [17] = experiment: Binding affinity at Tel45-9 mutant G4 quadruplex DNA (unknown origin) by fluorescence spectroscopic analysis; assay type: nucleic-acid assay
U2OS [18] = experiment: Cell cycle arrest in human U2OS cells assessed as accumulation at G2/M phase at 0.6 uM measured after 24 hrs by propidium iodide staining based flow cytometry (reference value: 33.5%); assay type: functional
U2OS [19] = experiment: Cell cycle arrest in human U2OS cells assessed as accumulation at Sub-G1 phase at 2.5 uM measured after 24 hrs by propidium iodide staining based flow cytometry (reference value: 0.5%); assay type: functional
U2OS [20] = experiment: Cell cycle arrest in human U2OS cells assessed as accumulation at S phase at 1.2 uM measured after 24 hrs by propidium iodide staining based flow cytometry (reference value: 24%); assay type: functional
Quadruplex DNA [21] = experiment: Binding affinity to Tel45 G4 quadruplex DNA (unknown origin) assessed as compound-DNA complex formation at stoichiometry ratio of 1:1 by job-plot analysis; assay type: nucleic-acid assay
Quadruplex DNA [22] = experiment: Binding affinity at Tel45 G4 quadruplex DNA (unknown origin) assessed as appearance of new long-lived unquenched species by time resolved fluorescence assay; assay type: nucleic-acid assay
Quadruplex DNA [23] = experiment: Binding affinity at Tel21 G4 quadruplex DNA (unknown origin) by time resolved fluorescence analysis; assay type: nucleic-acid assay
U2OS [24] = experiment: Induction of apoptosis in human U2OS cells assessed as late apoptotic cells at 0.6 uM measured after 24 hrs by Annexin-V flour 633/propidium iodide staining based flow cytometry (reference value: 0.03%); assay type: functional
U2OS [25] = experiment: Induction of apoptosis in human U2OS cells assessed as necrotic cells at 0.6 uM measured after 24 hrs by Annexin-V flour 633/propidium iodide staining based flow cytometry (reference value: 0.022%); assay type: functional
U2OS [26] = experiment: Cell cycle arrest in human U2OS cells assessed as accumulation at Sub-G1 phase at 1.2 uM measured after 24 hrs by propidium iodide staining based flow cytometry (reference value: 0.5%); assay type: functional
U2OS [27] = experiment: Cell cycle arrest in human U2OS cells assessed as accumulation at G0/G1 phase at 0.6 uM measured after 24 hrs by propidium iodide staining based flow cytometry (reference value: 42%); assay type: functional
Quadruplex DNA [28] = experiment: Binding affinity to 2-Ap46 labelled Tel45 G4 quadruplex DNA (unknown origin) up to 10 uM by fluorescence titration assay; assay type: nucleic-acid assay; details: dose microM <=10
[29] = Binding affinity to hairpin duplex DNA (unknown origin) by fluorescence spectroscopic analysis
U2OS [30] = experiment: Induction of apoptosis in human U2OS cells assessed as viable cells at 0.6 uM measured after 24 hrs by Annexin-V flour 633/propidium iodide staining based flow cytometry (reference value: 90%); assay type: functional; details: read-out: Activity
U2OS [31] = experiment: Induction of apoptosis in human U2OS cells assessed as early apoptotic cells at 2.5 uM measured after 24 hrs by Annexin-V flour 633/propidium iodide staining based flow cytometry (reference value: 9.55%); assay type: functional
Quadruplex DNA [32] = experiment: Binding affinity to 2-Ap1 labelled Tel45 G4 quadruplex DNA (unknown origin) up to 10 uM by fluorescence titration assay; assay type: nucleic-acid assay; details: dose microM <=10
Quadruplex DNA [33] = experiment: Binding affinity at Tel45-6 mutant G4 quadruplex DNA (unknown origin) assessed as change in melting temperature at 6 uM by circular dichroism spectrophotometric method; assay type: nucleic-acid assay
Quadruplex DNA [34] = experiment: Binding affinity to 2-Ap25 labelled Tel45 G4 quadruplex DNA (unknown origin) up to 10 uM by fluorescence titration assay; assay type: nucleic-acid assay; details: dose microM <=10
U2OS [35] = experiment: Induction of apoptosis in human U2OS cells assessed as necrotic cells at 2.5 uM measured after 24 hrs by Annexin-V flour 633/propidium iodide staining based flow cytometry (reference value: 0.022%); assay type: functional
U2OS [36] = experiment: Induction of apoptosis in human U2OS cells assessed as early apoptotic cells at 0.6 uM measured after 24 hrs by Annexin-V flour 633/propidium iodide staining based flow cytometry (reference value: 9.55%); assay type: functional
[37] = Binding affinity to hairpin duplex DNA (unknown origin) by time resolved fluorescence analysis
U2OS [38] = experiment: Cell cycle arrest in human U2OS cells assessed as accumulation at Sub-G1 phase at 0.6 uM measured after 24 hrs by propidium iodide staining based flow cytometry (reference value: 0.5%); assay type: functional
U2OS [39] = experiment: Induction of apoptosis in human U2OS cells assessed as necrotic cells at 1.2 uM measured after 24 hrs by Annexin-V flour 633/propidium iodide staining based flow cytometry (reference value: 0.022%); assay type: functional
Quadruplex DNA [40] = experiment: Binding affinity at Tel21 G4 quadruplex DNA (unknown origin) by fluorescence spectroscopic analysis; assay type: nucleic-acid assay
U2OS [41] = experiment: Cell cycle arrest in human U2OS cells assessed as accumulation at S phase at 2.5 uM measured after 24 hrs by propidium iodide staining based flow cytometry (reference value: 24%); assay type: functional
U2OS [42] = experiment: Induction of apoptosis in human U2OS cells assessed as viable cells at 2.5 uM measured after 24 hrs by Annexin-V flour 633/propidium iodide staining based flow cytometry (reference value: 90%); assay type: functional; details: read-out: Activity
Quadruplex DNA [43] = experiment: Binding affinity at Tel45-6 mutant G4 quadruplex DNA (unknown origin) by fluorescence spectroscopic analysis; assay type: nucleic-acid assay
U2OS [44] = experiment: Induction of apoptosis in human U2OS cells assessed as early apoptotic cells at 1.2 uM measured after 24 hrs by Annexin-V flour 633/propidium iodide staining based flow cytometry (reference value: 9.55%); assay type: functional

CN(C)c1ccc(Nc2c3ccc(NC(=O)CCN4CCCC4)cc3nc3cc(NC(=O)CCN4CCCC4)ccc23)cc1
IC50 (U2OS [1]): > 40 µM

CN1CCN(c2ccc(-c3nc(-c4ccc(-c5nc(-c6ccc(F)cc6)c(-c6ccc(F)cc6)[nH]5)cc4)[nH]c3-c3ccc(N4CCN(C)CC4)cc3)cc2)CC1
deltaTm (Quadruplex DNA [2]): 6.1 °C
ΔTm (Quadruplex DNA [3]): 10.9 °C

CN1CCN(c2ccc(-c3nc(-c4ccc(-c5nc(-c6ccc(N7CCN(C)CC7)cc6)c(-c6ccc(N7CCN(C)CC7)cc6)[nH]5)cc4)[nH]c3-c3ccc(N4CCN(C)CC4)cc3)cc2)CC1
deltaTm (Quadruplex DNA [2]): 8.9 °C
ΔTm (Quadruplex DNA [3]): 6.9 °C

CN1CCN(c2ccc(-c3nc(-c4ccc(-c5nc(-c6ccc(F)cc6)c(-c6ccc(N7CCN(C)CC7)cc6)[nH]5)cc4)[nH]c3-c3ccc(N4CCN(C)CC4)cc3)cc2)CC1
deltaTm (Quadruplex DNA [2]): 6.5 °C
ΔTm (Quadruplex DNA [3]): 15.7 °C

CN1CCN(c2ccc(-c3nc(-c4ccc(-c5nc(-c6ccc(F)cc6)c(-c6ccc(N7CCN(C)CC7)cc6)[nH]5)cc4)[nH]c3-c3ccc(F)cc3)cc2)CC1
Activity (U2OS [4]): 4.92%
Activity (U2OS [5]): Dose-dependent effect
IC50 (BJ): 29.3 µM
Activity (U2OS [6]): 25%
deltaTm (Quadruplex DNA [7]): 4.3 °C
Activity (U2OS [8]): 36.5%
Activity (U2OS [9]): 27.9%
Activity (U2OS [10]): 39.3%
Activity (U2OS [11]): 4.78%
Kd (Quadruplex DNA [12]): 4.6 µM
IC50 (U2OS [1]): 2.1 µM
inhibition (U2OS [13]): Dose-dependent effect
Activity (U2OS [14]): 34.4%
viability at 1.2 µM (U2OS [15]): 76.8%
Activity (U2OS [16]): Dose-dependent effect
Kd (Quadruplex DNA [17]): 10.7 µM
Activity (U2OS [18]): 33.4%
Activity (U2OS [19]): 3.4%
Activity (U2OS [20]): 25.9%
Activity (Quadruplex DNA [21]): Active
Activity (Quadruplex DNA [22]): Active
Activity (Quadruplex DNA [23]): Not Active
Activity (U2OS [24]): 3.05%
Activity (U2OS [25]): 0.14%
Activity (U2OS [26]): 0.4%
Activity (U2OS [27]): 41.4%
deltaTm (Quadruplex DNA [2]): 1.7 °C
Activity (Quadruplex DNA [28]): inactive
Kd [29]: 51.7 µM
viability at 0.6 µM (U2OS [30]): 84.3%
Activity (U2OS [31]): 20%
Activity (Quadruplex DNA [32]): inactive
deltaTm (Quadruplex DNA [33]): 2.5 °C
Activity (Quadruplex DNA [34]): Active
Activity (U2OS [35]): 1.34%
Activity (U2OS [36]): 12.5%
Activity [37]: Not Active
Activity (U2OS [38]): 0.3%
Activity (U2OS [39]): 0.53%
Kd (Quadruplex DNA [40]): 18.4 µM
Activity (U2OS [41]): 32.2%
viability at 2.5 µM (U2OS [42]): 73.7%
ΔTm (Quadruplex DNA [3]): 12.7 °C
Kd (Quadruplex DNA [43]): 8.6 µM
Activity (U2OS [44]): 17.9%

— ChEMBL document CHEMBL4715837, “Dimeric aryl-substituted imidazoles may inhibit ALT cancer by targeting the multimeric G-quadruplex in telomere” (Eur J Med Chem, 2020)
